Measured values from ChEMBL document CHEMBL2086370 (J Med Chem, 2012).

Legend:
[1] = tested on: Brain; test: Drug uptake in Harlan Sprague-Dawley rat brain at 3 ug/kg, iv after 10 mins by LC-MS/MS analysis; type: ADME, organism-based; details: in vivo, 0.003 mg/kg
[2] = Lipophilicity, log D of the compound at pH 7.4 by potentiometric method; type: physicochemical; details: buffer
[3] = tested on: Brain; test: Drug uptake in Harlan Sprague-Dawley rat brain at 3 ug/kg, iv up to 60 mins by LC-MS/MS analysis; details: in vivo, 1 h
[4] = target: Mu-type opioid receptor (Homo sapiens, UniProt P35372); test: Displacement of [3H]diprenorphine from human cloned mu type opioid receptor expressed in CHO cell membranes by scintillation counter
[5] = target: Kappa-type opioid receptor (Homo sapiens, UniProt P41145); test: biochemical
Description: Displacement of [3H]diprenorphine from human cloned kappa type opioid receptor expressed in CHO cell membranes by scintillation counter

[6] = target: Delta-type opioid receptor (Homo sapiens, UniProt P41143); test: biochemical
Description: Displacement of [3H]diprenorphine from human cloned delta type opioid receptor expressed in CHO cell membranes by scintillation counter

[7] = tested on: Rattus norvegicus; test: In vivo receptor occupancy of NOP receptor in po dosed Harlan Sprague-Dawley rat hypothalamus co-administered with unlabeled tracer compound at 3 ug/kg, iv; type: functional

Mu-type opioid receptor, sequence (P35372 whole entry): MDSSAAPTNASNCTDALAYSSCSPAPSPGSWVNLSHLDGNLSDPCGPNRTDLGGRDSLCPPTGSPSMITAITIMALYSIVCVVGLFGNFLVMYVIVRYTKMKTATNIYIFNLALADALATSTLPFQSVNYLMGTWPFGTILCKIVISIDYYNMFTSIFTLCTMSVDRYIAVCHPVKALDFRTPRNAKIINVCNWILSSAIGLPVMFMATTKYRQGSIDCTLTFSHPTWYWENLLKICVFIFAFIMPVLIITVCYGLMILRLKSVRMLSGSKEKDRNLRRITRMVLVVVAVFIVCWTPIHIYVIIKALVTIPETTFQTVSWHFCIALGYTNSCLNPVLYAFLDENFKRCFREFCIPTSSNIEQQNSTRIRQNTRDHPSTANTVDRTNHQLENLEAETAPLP
Kappa-type opioid receptor, sequence (P41145 whole entry): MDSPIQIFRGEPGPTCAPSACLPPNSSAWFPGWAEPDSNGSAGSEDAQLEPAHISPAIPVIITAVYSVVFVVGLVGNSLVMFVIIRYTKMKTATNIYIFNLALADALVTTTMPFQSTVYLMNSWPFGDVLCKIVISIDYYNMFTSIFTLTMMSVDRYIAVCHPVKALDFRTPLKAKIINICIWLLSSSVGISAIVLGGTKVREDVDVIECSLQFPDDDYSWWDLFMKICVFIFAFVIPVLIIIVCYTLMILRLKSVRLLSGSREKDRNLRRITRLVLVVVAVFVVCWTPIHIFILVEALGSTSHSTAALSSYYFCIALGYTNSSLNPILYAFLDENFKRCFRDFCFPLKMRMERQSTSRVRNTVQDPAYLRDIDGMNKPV
Delta-type opioid receptor, sequence (P41143 whole entry): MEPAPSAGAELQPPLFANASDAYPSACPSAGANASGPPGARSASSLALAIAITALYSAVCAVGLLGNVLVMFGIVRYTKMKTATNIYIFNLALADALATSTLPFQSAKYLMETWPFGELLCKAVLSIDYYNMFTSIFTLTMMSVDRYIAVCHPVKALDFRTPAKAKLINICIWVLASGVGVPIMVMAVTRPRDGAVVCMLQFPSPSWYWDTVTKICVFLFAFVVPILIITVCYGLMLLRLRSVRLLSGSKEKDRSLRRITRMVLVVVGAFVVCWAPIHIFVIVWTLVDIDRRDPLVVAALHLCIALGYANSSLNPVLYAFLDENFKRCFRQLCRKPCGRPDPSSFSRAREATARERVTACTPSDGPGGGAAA

| SMILES | SUV [1] [%] | logD ([2]; read-out: logD) | SUV [3] [%] | Ki [4] [nM] | Ki [5] [nM] | Ki [6] [nM] | ED50 [7] [mg/kg] | logD [2] |
| --- | --- | --- | --- | --- | --- | --- | --- | --- |
| CC(C)N(C)C(=O)[C@@H](Cc1ccccc1F)CN1CCC2(CC1)OCCc1cc(F)sc12 | 143 | 4.47 |  |  |  |  |  |  |
| O=C1NCN(c2ccccc2)C12CCN([C@H]1CC[C@@H]3CCCc4cccc1c43)CC2 |  | 3.46 |  |  |  |  |  |  |
| CNC(=O)Cn1c(=O)n(C2CCN([C@@H]3Cc4cccc5cccc3c45)CC2)c2ccccc21 |  |  | 0 |  |  |  |  |  |
| COC(=O)CN1CN(c2ccccc2)C2(CCN(Cc3cccc4ccccc34)CC2)C1=O |  | 3.85 | 6 |  |  |  |  |  |
| CN(C)C(=O)C(Cc1cscn1)CN1CCC2(CC1)OCc1ccc(F)cc12 (configuration not stated) |  | 2.02 | 25 | > 400 | > 400 | > 400 |  |  |
| CNC(=O)C(Cc1ccccc1Cl)CN1CCC2(CC1)OCCc1cc(Cl)sc12 (configuration not stated) |  | 3.77 | 87 |  |  |  |  |  |
| NC(=O)C(Cc1ccccc1Cl)CN1CCC2(CC1)OCCc1cc(Cl)sc12 (configuration not stated) |  | 4.58 | 145 |  |  |  |  |  |
| CN(C)C(=O)[C@@H](Cc1ccccc1F)CN1CCC2(CC1)OCCc1cc(F)sc12.O=C(O)C(O)C(O)C(=O)O | 154 | 3.89 |  | > 400 | > 400 | > 400 |  |  |
| Cc1cccc2c1CC[C@H](CN1CCC(c3c(Cl)cccc3Cl)CC1)C[C@@H]2O |  | 3.56 | 130 | > 400 | > 400 | > 400 | 6.9 |  |
| CN(C)C(=O)C(CN1CCC2(CC1)OCCc1ccsc12)Cn1cccn1 (racemic) |  |  |  | > 400 | > 400 | > 400 |  |  |
| CN(C)C(=O)C(Cc1ccccc1Cl)CN1CCC2(CC1)OCCc1ccsc12 (racemic) |  |  |  | > 400 | > 400 | > 400 |  |  |
| CN(C)C(=O)C(Cc1ccccc1F)CN1CCC2(CC1)OCCc1ccsc12 (racemic) |  |  |  | > 400 | > 400 | > 400 |  |  |
| CN(C)C(=O)C(Cc1c(F)cccc1F)CN1CCC2(CC1)OCCc1ccsc12 (racemic) |  |  |  | > 400 | > 400 | > 400 |  |  |
| CN(C)C(=O)C(CN1CCC2(CC1)OCCc1cc(F)sc12)Cn1cccn1.O=C(O)C(O)C(O)C(=O)O (single isomer, unassigned; (+)) |  | 2.84 | 65 |  |  |  |  |  |
| CN(C)C(=O)C(Cc1ccccc1F)CN1CCC2(CC1)OCCc1cc(Cl)sc12.O=C(O)C(O)C(O)C(=O)O (single isomer, unassigned; (+)) |  | 4.27 | 88 | > 400 | > 400 | > 400 |  |  |
| CN(C)C(=O)C(Cc1ccccc1Cl)CN1CCC2(CC1)OCCc1cc(F)sc12 (single isomer, unassigned; (+)) | 208 | 4.38 |  | > 400 | > 400 | > 400 |  |  |
| CN(C)C(=O)C(CN1CCC2(CC1)OCCc1ccsc12)Cn1cccn1.O=C(O)C(O)C(O)C(=O)O (single isomer, unassigned; (-)) |  | 2.03 | 15 |  |  |  |  |  |
| CN(C)C(=O)C(Cc1ccccc1Cl)CN1CCC2(CC1)OCCc1cc(Cl)sc12.O=C(O)C(O)C(O)C(=O)O (single isomer, unassigned; (-)) |  | 4.61 | 75 | > 400 | > 400 | > 400 |  |  |
| CNC(=O)C(Cc1ccccc1F)CN1CCC2(CC1)OCCc1cc(Cl)sc12 (single isomer, unassigned; (-)) |  | 4.19 | 46 |  |  |  |  |  |
| CNC(=O)C(Cc1ccccc1Cl)CN1CCC2(CC1)OCCc1cc(F)sc12 (single isomer, unassigned; (-)) | 154 | 3.9 |  |  |  |  |  |  |
| CN(C(=O)C(Cc1ccccc1F)CN1CCC2(CC1)OCCc1cc(F)sc12)C1CC1 (single isomer, unassigned; (-)) |  | 4.77 | 82 |  |  |  |  |  |
| CN(C(=O)C(Cc1ccccc1Cl)CN1CCC2(CC1)OCCc1cc(F)sc12)C1CC1 (single isomer, unassigned; (-)) |  | 5.52 | 72 |  |  |  |  |  |
| CNC(=O)[C@@H](Cc1ccccc1F)CN1CCC2(CC1)OCCc1cc(F)sc12 [NOP-1A] | 124 |  |  |  |  |  |  | 3.5 |
